Assay results published in patent US7935722B2 (Eli Lilly and Company, priority 2005, dated 2011).
Like-named read-outs stand apart in the source and are kept apart here.

Key:
[1] = biological target: T1, human AR (androgen receptor) (Homo sapiens, UniProt P10275); test: Steroid hormone nuclear receptor binding assay, AR binding
T1 construct: expressed in transfected cells; host or cells: 293 cells (293-AR lysate)
T1 sequence (P10275 1-920): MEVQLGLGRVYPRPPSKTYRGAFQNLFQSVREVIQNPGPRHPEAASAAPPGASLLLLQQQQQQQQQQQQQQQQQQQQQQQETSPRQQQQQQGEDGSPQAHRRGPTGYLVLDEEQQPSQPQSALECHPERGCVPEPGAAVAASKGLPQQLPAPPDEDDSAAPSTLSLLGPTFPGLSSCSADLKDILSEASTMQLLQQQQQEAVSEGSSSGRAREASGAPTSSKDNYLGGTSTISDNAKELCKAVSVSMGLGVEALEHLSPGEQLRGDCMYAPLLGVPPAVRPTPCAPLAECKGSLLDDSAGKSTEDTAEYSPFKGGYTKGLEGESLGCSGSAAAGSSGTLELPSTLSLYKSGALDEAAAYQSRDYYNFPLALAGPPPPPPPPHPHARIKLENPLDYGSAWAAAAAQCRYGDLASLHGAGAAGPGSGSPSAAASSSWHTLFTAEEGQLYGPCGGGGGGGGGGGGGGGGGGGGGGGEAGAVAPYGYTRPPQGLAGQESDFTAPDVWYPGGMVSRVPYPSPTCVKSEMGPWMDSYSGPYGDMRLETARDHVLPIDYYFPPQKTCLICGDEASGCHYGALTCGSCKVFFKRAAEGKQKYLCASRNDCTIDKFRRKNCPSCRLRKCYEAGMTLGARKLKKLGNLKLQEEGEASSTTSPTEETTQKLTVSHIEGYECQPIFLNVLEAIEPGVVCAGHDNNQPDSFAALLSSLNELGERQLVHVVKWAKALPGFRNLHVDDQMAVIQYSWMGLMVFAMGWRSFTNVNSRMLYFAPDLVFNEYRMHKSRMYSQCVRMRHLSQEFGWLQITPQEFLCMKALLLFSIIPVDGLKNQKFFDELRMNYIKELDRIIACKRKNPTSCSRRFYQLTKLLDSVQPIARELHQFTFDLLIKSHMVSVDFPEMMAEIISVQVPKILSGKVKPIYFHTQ
Protocol: Cell lysates from 293 cells overexpressing human GR (glucocorticoid receptor), AR (androgen receptor), MR (mineralocorticoid receptor) or PR (progesterone receptor) are used for competition binding assays to determine Ki values for test compounds. […] Competing compounds are added at various concentrations ranging from about 0.01 nM to 10 μM. Non-specific binding is determined in the presence of 500 nM dexamethasone for GR binding, 500 nM aldosterone for MR binding, or 500 nM methyltrienolone for AR and PR binding. The binding reaction (140 μl) is incubated for overnight at 4° C., then 70 μl of cold charcoal-dextran buffer (containing per 50 ml of assay buffer, 0.75 g of charcoal and 0.25 g of dextran) is added to each reaction. Plates are mixed 8 minutes on an orbital shaker at 4° C. Plates are then centrifuged at 3,000 rpm at 4° C. for 10 minutes. An aliquot of 120 μl of the mix is transferred to another 96-well plate and 175 μl of Wallac Optiphase “Hisafe 3” scintillation fluid is added to each well. Plates are sealed and shaken vigorously on an orbital shaker. After an incubation of 2 hrs, plates are read in a Wallac Microbeta counter. […] The Kd for ^3H-dexamethasone for GR binding, ^3H-methyltrienolone for AR binding, ^3H-aldosterone for MR binding, or ^3H-methyltrienolone for PR binding, is determined by saturation binding. The IC50 values for test compounds are converted to Ki using Cheng-Prusoff equation and the Kd determined by saturation binding assay. […]

[2] = biological target: T2, human androgen receptor (AR) (Homo sapiens, UniProt P10275); test: C2C12 AR/ARE reporter assay; format: cell-based
T2 construct: expressed in transfected cells; host or cells: mouse myoblast C2C12 cells, transiently co-transfected
T2 sequence (P10275 1-920): T1 sequence (P10275 1-920)
Protocol: As an indicator of agonist activity in muscle tissue, the C2C12 AR/ARE reporter assay is performed. Briefly, mouse myoblast C2C12 cells are co-transfected using FuGENE™. […] Cells are transfected in T150 cm^2 flasks in DMEM media with 4% or 10% Fetal Bovine Serum […]. After a 5 hour incubation, transfected cells are trypsinized, plated in 96 well dishes in DMEM media containing 10% charcoal-stripped FBS, incubated for 2 h and then exposed to various concentrations of test compounds ranging from about 0.01 nM to 10 μM. After 48 h of incubations with compounds, cells are lysed and luciferase activity is determined using standard techniques. Data is fit to a 4 parameter-fit logistics to determine EC50 values. The % efficacy is determined versus maximum stimulation obtained with 10 nM methyltrienolone. […]

[3] = C2C12, read-out: C2C12 % Efficacy
[4] = average of n trials, read-out: AR binding Ki
[5] = C2C12 AR/ARE reporter assay, average of n trials, read-out: C2C12 % Efficacy
[6] = C2C12 AR/ARE reporter assay, average of n trials, read-out: C2C12 EC50

SMILES | Ki [1] [nM] | EC50 [2] [nM] | Emax [2, 3] [%] | Ki [1, 4] [nM] | Emax [2, 5] [%] | EC50 [2, 6] [nM]
COc1cccc2c3c(n(Cc4ccccc4)c12)CCC(NC(=O)C(C)C)C3 (centres unmarked) [Example 76] | 478 | 1710 | 58.1 |  |  | 
CCCOc1ccc2c(c1)c1c(n2Cc2cccc(F)c2)CCC(NC(=O)C(C)C)C1 (centres unmarked) [Example 95, N-[9-(3-Fluoro-benzyl)-6-propoxy-2,3,4,9-tetrahydro-1H-carbazol-3-yl]-isobutyramide] | 12.4 | 18.3 | 79.6 |  |  | 
CC(C)C(=O)NC1CCc2c(c3cc(-c4cccnn4)ccc3n2Cc2cccc(F)c2)C1 (centres unmarked) [Example 138] |  |  |  | 47.3 | 86.8 | 31.1
CC(C)C(=O)NC1CCc2c(c3cc(OC(F)(F)F)ccc3n2Cc2cccc(F)n2)C1 (centres unmarked) [Example 162, N-[9-(6-Fluoro-pyridin-2-ylmethyl)-6-trifluoromethoxy-2,3,4,9-tetrahydro-1H-carbazol-3-yl]-isobutyramide] | 8.6 | 9.2 | 81.7 |  |  | 
COc1ccc2c(c1)c1c(n2Cc2ccccc2F)CCC(NC(=O)C(C)C)C1 (centres unmarked) [Example 78] | 187 | 238 | 71.5 |  |  | 
CC(C)C(=O)NC1CCc2c(c3cc(C#N)ccc3n2Cc2ccccc2N)C1 (centres unmarked) [Example 109, N-[9-(2-Amino-benzyl)-6-cyano-2,3,4,9-tetrahydro-1H-carbazol-3-yl]-isobutyramide] | 15.9 | 2.3 | 76.9 |  |  | 
COc1ccccc1Cn1c2c(c3cc(C#N)ccc31)CC(NC(=O)C(C)C)CC2 (centres unmarked) [Example 105, N-[6-Cyano-9-(2-methoxy-benzyl)-2,3,4,9-tetrahydro-1H-carbazol-3-yl]-isobutyramide] | 7.7 | 30.7 | 97.5 |  |  | 
CC(C)C(=O)NC1CCc2c(c3cc(C#N)ccc3n2Cc2nccs2)C1 (centres unmarked) [Example 149, N-(6-Cyano-9-thiazol-2-ylmethyl-2,3,4,9-tetrahydro-1H-carbazol-3-yl)-isobutyramide] |  |  |  | 18 | 91.4 | 17.6
CC(C)C(=O)N[C@@H]1CCc2c(c3cc(C#N)ccc3n2Cc2ccccn2)C1 [Example 161, (R)-N-(6-cyano-9-pyridin-2-ylmethyl-2,3,4,9-tetrahydro-1H-carbazol-3-yl)-isobutyramide] | 6.8 | 3.1 | 95.7 |  |  | 
COC(=O)NC1CCc2c(c3cc(OC(F)(F)F)ccc3n2Cc2cccc(F)c2)C1 (centres unmarked) [Example 168] |  |  |  | 37 | 56.7 | 280
O=C(NC1CCc2c(c3cc(OC(F)(F)F)ccc3n2Cc2cccc(F)n2)C1)C1CC1 (centres unmarked) [Example 163] |  |  |  | 12.7 | 75.2 | 37.3
CO/N=C/c1ccc2c(c1)c1c(n2Cc2cccc(F)c2)CC[C@@H](NC(=O)C(C)C)C1 [Example 201, (R)-N-[9-(3-Fluorobenzyl)-6-(methoxyimino-methyl)-2,3,4,9-tetrahydro-1H-carbazol-3-yl]-isobutyramide] |  |  |  | 2.9 | 79.9 | 5
CC(C)C(=O)NC1CCc2c(c3cc(C#N)ccc3n2Cc2cscn2)C1 (centres unmarked) [Example 147, N-(6-Cyano-9-thiazol-4-ylmethyl-2,3,4,9-tetrahydro-1H-carbazol-3-yl)-isobutyramide] | 29.2 | 79.7 | 102 |  |  | 
CCC(=O)NC1CCc2c(c3cc(Br)ccc3n2Cc2cccc(F)c2)C1 (centres unmarked) [Example 175] | 3.2 | 11.2 | 80.2 |  |  | 
CC(C)C(=O)NC1CCc2c(c3cc(-c4ccncc4)ccc3n2Cc2cccc(F)c2)C1 (centres unmarked) [Example 134] |  |  |  | 380 | 37.6 | 365
O=C(NC1CCc2c(c3cc(Br)ccc3n2Cc2cccc(F)c2)C1)C1CC1 (centres unmarked) [Example 170, Cyclopropanecarboxylic acid [6-bromo-9-(3-fluoro-benzyl)-2,3,4,9-tetrahydro-1H-carbazol-3-yl]-amide] | 5.9 | 22.4 | 67.2 |  |  | 
CNC(=O)NC1CCc2c(c3cc(C#N)ccc3n2Cc2cccc(F)c2)C1 (centres unmarked) [Example 179, 1-[6-Cyano-9-(3-fluorobenzyl)-2,3,4,9-tetrahydro-1H-carbazol-3-yl]-3-methyl-urea] |  |  |  | 14.6 | 114 | 24.1
O=C(N[C@@H]1CCc2c(c3cc(/C=N/O)ccc3n2Cc2cccc(F)c2)C1)C1CC1 [Example 203, (R)-Cyclopropanecarboxylic acid[9-(3-fluoro-benzyl)-6-(hydroxyimino-methyl)-2,3,4,9-tetrahydro-1H-carbazol-3-yl]-amide] |  |  |  | 12.3 | 73.1 | 20.2
COc1ccc(Cn2c3c(c4cc(C#N)ccc42)CC(NC(=O)C(C)C)CC3)cc1 (centres unmarked) [Example 87] | 17.7 |  | 10.6 |  |  | 
CC(C)C(=O)NC1CCc2c(c3cc(Cl)ccc3n2Cc2cccc(O)c2)C1 (centres unmarked) [Example 102, N-[^6-Chloro-9-(3-hydroxy-benzyl)-2,3,4,9-tetrahydro-1H-carbazol-3-yl]-isobutyramide] | 16.8 | 300 | 39.6 |  |  | 
Cc1ccc(-c2ccc3c(c2)c2c(n3Cc3cccc(F)c3)CCC(NC(=O)C(C)C)C2)nn1 (centres unmarked) [Example 139, N-[9-(3-Fluoro-benzyl)-6-(6-methyl-pyridazin-3-yl)-2,3,4,9-tetrahydro-1H-carbazol-3-yl]-isobutyramide] |  |  |  | 34.9 | 96.9 | 19.4
CC(C)C(=O)NC1CCc2c(c3cc(C#N)cc(Cl)c3n2Cc2cccc(F)c2)C1 (centres unmarked) [Example 119, N-[8-Chloro-6-cyano-9-(3-fluoro-benzyl)-2,3,4,9-tetrahydro-1H-carbazol-3-yl]-isobutyramide] |  |  |  | 7.3 | 99.1 | 34.2
CC(C)C(=O)NC1CCc2c(c3cc(O)ccc3n2Cc2cccc(F)c2)C1 (centres unmarked) [Example 91, N-[9-(3-Fluoro-benzyl)-6-hydroxy-2,3,4,9-tetrahydro-1H-carbazol-3-yl]-isobutyramide] | 11.8 | 97.1 | 86.9 |  |  | 
